In ChEMBL document CHEMBL5370693, “Kinases Controlling Stability of the Oncogenic MYCN Protein” (ACS Med Chem Lett, 2023):

Columns and labels:
[1] = tested on: Phosphatidylinositol 4,5-bisphosphate 3-kinase catalytic subunit alpha isoform (Homo sapiens), P42336 [E545K]; experiment: Inhibition of PIK3CA E545K mutant (unknown origin) assessed as remaining activity at 15 uM incubated for 1 hr by KINOMEscan competitive binding assay relative to control
[2] = molecular target: T1, Phosphatidylinositol 4,5-bisphosphate 3-kinase catalytic subunit delta isoform (Homo sapiens) (UniProt O00329); experiment: Inhibition of PIK3CD (unknown origin) assessed as remaining activity at 15 uM incubated for 1 hr by KINOMEscan competitive binding assay relative to control
T1 sequence (whole entry): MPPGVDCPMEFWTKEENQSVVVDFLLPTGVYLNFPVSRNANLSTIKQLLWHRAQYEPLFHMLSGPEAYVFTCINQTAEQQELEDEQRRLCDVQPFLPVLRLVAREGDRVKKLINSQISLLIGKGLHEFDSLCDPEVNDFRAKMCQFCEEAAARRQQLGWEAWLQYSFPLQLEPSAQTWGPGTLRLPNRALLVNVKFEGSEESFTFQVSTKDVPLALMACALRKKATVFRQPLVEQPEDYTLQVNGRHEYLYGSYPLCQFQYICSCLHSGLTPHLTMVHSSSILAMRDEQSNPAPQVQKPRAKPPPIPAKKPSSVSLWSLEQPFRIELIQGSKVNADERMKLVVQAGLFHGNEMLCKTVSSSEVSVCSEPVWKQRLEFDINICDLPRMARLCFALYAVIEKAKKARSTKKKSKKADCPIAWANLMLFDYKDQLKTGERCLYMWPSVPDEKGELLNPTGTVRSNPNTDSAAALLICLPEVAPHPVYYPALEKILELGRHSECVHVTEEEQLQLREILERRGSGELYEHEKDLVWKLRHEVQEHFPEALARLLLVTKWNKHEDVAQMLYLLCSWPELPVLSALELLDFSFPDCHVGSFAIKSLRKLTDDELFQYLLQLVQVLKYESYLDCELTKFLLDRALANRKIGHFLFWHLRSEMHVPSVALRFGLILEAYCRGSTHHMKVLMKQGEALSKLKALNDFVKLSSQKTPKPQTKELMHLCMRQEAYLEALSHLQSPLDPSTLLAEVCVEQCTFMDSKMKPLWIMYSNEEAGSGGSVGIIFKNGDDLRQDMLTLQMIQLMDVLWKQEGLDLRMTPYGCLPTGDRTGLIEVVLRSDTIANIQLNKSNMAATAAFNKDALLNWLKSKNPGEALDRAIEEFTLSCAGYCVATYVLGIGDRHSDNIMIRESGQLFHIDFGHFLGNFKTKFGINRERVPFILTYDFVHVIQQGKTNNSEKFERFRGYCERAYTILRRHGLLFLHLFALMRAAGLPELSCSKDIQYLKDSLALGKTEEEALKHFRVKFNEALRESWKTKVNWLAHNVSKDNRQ

[3] = tested on: Phosphatidylinositol 4,5-bisphosphate 3-kinase catalytic subunit alpha isoform (Homo sapiens), P42336 [Q546K]; experiment: Inhibition of PIK3CA Q546K mutant (unknown origin) assessed as remaining activity at 15 uM incubated for 1 hr by KINOMEscan competitive binding assay relative to control
[4] = molecular target: Phosphatidylinositol 4,5-bisphosphate 3-kinase catalytic subunit gamma isoform (Homo sapiens) (UniProt P48736); experiment: Inhibition of PIK3CG (unknown origin) assessed as remaining activity at 15 uM incubated for 1 hr by KINOMEscan competitive binding assay relative to control
[5] = molecular target: Serine/threonine-protein kinase Chk2 (Homo sapiens) (UniProt O96017); experiment: Inhibition of CHEK2 (unknown origin) assessed as remaining activity at 15 uM incubated for 1 hr by KINOMEscan competitive binding assay relative to control
[6] = molecular target: Serine/threonine-protein kinase 38-like (Homo sapiens) (UniProt Q9Y2H1); experiment: Inhibition of NDR2 (unknown origin) assessed as remaining activity at 15 uM incubated for 1 hr by KINOMEscan competitive binding assay relative to control
[7] = molecular target: Casein kinase II subunit alpha' (Homo sapiens) (UniProt P19784); experiment: Inhibition of CSNK2A2 (unknown origin) assessed as remaining activity at 15 uM incubated for 1 hr by KINOMEscan competitive binding assay relative to control
[8] = tested on: Phosphatidylinositol 4,5-bisphosphate 3-kinase catalytic subunit alpha isoform (Homo sapiens), P42336 [C420R]; experiment: Inhibition of PIK3CA C420R mutant (unknown origin) assessed as remaining activity at 15 uM incubated for 1 hr by KINOMEscan competitive binding assay relative to control
[9] = tested on: Phosphatidylinositol 4,5-bisphosphate 3-kinase catalytic subunit alpha isoform (Homo sapiens), P42336 [H1047L]; experiment: Inhibition of PIK3CA H1047L mutant (unknown origin) assessed as remaining activity at 15 uM incubated for 1 hr by KINOMEscan competitive binding assay relative to control
[10] = tested on: Phosphatidylinositol 4,5-bisphosphate 3-kinase catalytic subunit alpha isoform (Homo sapiens), P42336 [I800L]; experiment: Inhibition of PIK3CA I800L mutant (unknown origin) assessed as remaining activity at 15 uM incubated for 1 hr by KINOMEscan competitive binding assay relative to control
[11] = tested on: Phosphatidylinositol 4,5-bisphosphate 3-kinase catalytic subunit alpha isoform (Homo sapiens), P42336 [E542K]; experiment: Inhibition of PIK3CA E542K mutant (unknown origin) assessed as remaining activity at 15 uM incubated for 1 hr by KINOMEscan competitive binding assay relative to control
[12] = molecular target: Phosphatidylinositol 4-phosphate 3-kinase C2 domain-containing subunit beta (Homo sapiens) (UniProt O00750); experiment: Inhibition of PIK3C2B (unknown origin) assessed as remaining activity at 5 uM incubated for 1 hr by KINOMEscan competitive binding assay relative to control
[13] = molecular target: Phosphatidylinositol 4,5-bisphosphate 3-kinase catalytic subunit alpha isoform (Homo sapiens) (UniProt P42336); experiment: Inhibition of PIK3CA (unknown origin) assessed as remaining activity at 10 uM incubated for 1 hr by KINOMEscan competitive binding assay relative to control
[14] = molecular target: T2, Serine/threonine-protein kinase Chk1 (Homo sapiens) (UniProt O14757); experiment: Inhibition of CHEK1 (unknown origin) assessed as remaining activity at […] incubated for 1 hr by KINOMEscan competitive binding assay relative to control
T2 sequence (whole entry): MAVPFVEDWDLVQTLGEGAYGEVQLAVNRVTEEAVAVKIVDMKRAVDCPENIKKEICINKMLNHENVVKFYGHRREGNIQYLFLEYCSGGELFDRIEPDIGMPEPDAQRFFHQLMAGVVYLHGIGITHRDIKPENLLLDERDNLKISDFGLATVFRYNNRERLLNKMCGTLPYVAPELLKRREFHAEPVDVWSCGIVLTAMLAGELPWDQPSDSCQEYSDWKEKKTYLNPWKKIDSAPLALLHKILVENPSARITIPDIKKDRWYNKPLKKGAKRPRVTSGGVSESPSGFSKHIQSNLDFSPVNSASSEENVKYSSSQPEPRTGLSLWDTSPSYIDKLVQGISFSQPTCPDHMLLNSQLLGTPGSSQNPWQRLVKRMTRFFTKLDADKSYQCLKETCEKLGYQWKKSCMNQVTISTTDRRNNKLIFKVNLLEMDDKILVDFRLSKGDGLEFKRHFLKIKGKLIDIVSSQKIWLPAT

| Compound | Activity [1] | Activity [2] | Activity [3] | Activity [4] | Activity [5] | Activity [6] | Activity [7] | Activity [8] | Activity [9] | Activity [10] | Activity [11] | Activity [12] | Activity [13] | Activity [14] |
| --- | --- | --- | --- | --- | --- | --- | --- | --- | --- | --- | --- | --- | --- | --- |
| CC(C)CCOc1ccc2c(=O)c(-c3ccc(O)c(O)c3)coc2c1 | 79% | 97% | 96% | 95% | 75% | 17% | 100% | 94% | 80% | 91% | 98% | – | – | – |
| O=c1[nH]c2ccc(Cl)cc2c(N[C@@H]2CN3CCC2CC3)c1-c1nc2ccccc2[nH]1 | – | – | – | – | – | – | – | – | – | – | – | 71% | – | – |
| NC(=O)Nc1cc(-c2cccc(F)c2)sc1C(=O)N[C@H]1CCCNC1 | – | – | – | – | – | – | – | – | – | – | – | – | 86% | – |
| CC(C)CC(=O)Oc1ccc2occ(-c3ccc(O)c(O)c3)c(=O)c2c1 | 66% | 93% | 84% | 86% | 76% | 48% | 52% | 87% | 69% | 98% | 93% | – | – | – |
| CC(C)=CCc1c2c(c3occ(-c4ccc(O)c(O)c4)c(=O)c3c1O)C=CC(C)(C)O2 | – | – | – | – | – | – | – | – | – | – | – | – | – | 76% |
